Test results as given in article PMC4828318 (Journal of enzyme inhibition and medicinal chemistry, 2015).
Like-named read-outs stand apart in the source and are kept apart here.

Experiments:
DNMT3A/3L = DNMT3A/3L (Homo sapiens, UniProt Q9Y6K1); assay: In vitro DNMT inhibition, radiometric filter-paper assay, DNMT3A/3L; type: biochemical
DNMT1 [1] = target: DNMT1 (Homo sapiens, UniProt P26358); assay: In vitro DNMT inhibition, radiometric filter-paper assay, DNMT1; type: biochemical
DNMT3B = conditions: rats, 21-week treatment period; protein expression ref 39; cited from earlier work
HT-29 cells = assay: MTT cell proliferation assay, HT-29; type: cell-based; conditions: Homo sapiens, HT-29, 24 h, read-out: IC50 (μM) HT-29
HepG2 cells = assay: MTT cell proliferation assay, HepG2; type: cell-based; conditions: Homo sapiens, HepG2, 24 h, read-out: IC50 (μM) HepG2
DNMT1 [2] = conditions: rats, 21-week treatment period; protein expression ref 39; cited from earlier work
DNMT3B/3L = DNMT3B/3L (Homo sapiens, UniProt Q9UBC3); assay: In vitro DNMT inhibition, radiometric filter-paper assay, DNMT3B/3L; type: biochemical

Chain of DNMT1 (Homo sapiens, UniProt P26358) (P26358 whole entry): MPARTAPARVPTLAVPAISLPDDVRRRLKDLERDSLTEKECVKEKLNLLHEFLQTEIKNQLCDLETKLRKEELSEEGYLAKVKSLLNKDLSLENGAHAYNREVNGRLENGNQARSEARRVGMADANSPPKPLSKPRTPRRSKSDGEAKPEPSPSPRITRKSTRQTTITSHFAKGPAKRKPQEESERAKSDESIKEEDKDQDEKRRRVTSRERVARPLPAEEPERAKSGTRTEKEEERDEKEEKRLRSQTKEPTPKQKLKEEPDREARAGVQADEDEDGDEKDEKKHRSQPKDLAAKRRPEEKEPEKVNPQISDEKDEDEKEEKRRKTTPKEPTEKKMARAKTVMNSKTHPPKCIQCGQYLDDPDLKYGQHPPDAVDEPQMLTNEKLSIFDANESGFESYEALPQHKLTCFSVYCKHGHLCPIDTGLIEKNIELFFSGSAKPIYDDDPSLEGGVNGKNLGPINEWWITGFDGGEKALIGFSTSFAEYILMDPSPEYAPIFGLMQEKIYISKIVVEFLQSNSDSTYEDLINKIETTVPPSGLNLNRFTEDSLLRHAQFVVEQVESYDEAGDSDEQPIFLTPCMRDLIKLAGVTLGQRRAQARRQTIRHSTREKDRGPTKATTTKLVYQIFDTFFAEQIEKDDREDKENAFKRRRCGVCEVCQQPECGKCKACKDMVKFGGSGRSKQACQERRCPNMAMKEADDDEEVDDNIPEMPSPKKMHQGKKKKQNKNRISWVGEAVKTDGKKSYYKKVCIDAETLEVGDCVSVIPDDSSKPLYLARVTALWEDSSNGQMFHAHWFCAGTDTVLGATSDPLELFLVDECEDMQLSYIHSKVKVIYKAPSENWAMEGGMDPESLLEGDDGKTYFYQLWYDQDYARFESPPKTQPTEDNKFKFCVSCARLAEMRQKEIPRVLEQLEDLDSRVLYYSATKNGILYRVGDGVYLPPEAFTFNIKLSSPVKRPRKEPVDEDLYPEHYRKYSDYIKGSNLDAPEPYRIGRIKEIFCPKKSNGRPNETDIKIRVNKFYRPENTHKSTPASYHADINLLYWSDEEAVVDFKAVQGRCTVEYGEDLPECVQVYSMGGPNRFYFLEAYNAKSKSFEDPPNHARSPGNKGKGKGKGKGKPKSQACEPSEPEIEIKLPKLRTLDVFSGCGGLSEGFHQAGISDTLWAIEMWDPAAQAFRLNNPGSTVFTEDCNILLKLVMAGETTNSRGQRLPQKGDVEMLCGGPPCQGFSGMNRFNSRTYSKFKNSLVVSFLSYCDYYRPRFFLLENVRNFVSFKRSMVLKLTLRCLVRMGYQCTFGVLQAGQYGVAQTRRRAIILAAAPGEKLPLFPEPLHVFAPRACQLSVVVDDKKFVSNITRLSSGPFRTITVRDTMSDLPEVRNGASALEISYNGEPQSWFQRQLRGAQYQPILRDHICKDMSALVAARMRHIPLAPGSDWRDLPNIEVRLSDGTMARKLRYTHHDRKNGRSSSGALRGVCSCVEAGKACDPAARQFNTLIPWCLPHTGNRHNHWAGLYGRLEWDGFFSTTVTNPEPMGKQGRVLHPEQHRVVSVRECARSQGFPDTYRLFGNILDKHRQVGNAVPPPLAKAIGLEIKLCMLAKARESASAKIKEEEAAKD

| IC50 (DNMT1 [1]) [µM] | SMILES | IC50 (DNMT3A/3L) [µM] | expression of DNMT3B (DNMT3B) | IC50 (HT-29 cells) [µM] | IC50 (HepG2 cells) [µM] | expression of the DNMT1 enzyme (DNMT1 [2]) | IC50 (DNMT3B/3L) [µM] | inhibition of DNMT3A at the highest test compound concentration (DNMT3A/3L; 300 μM) | inhibition of DNMT1 at the highest test compound concentration (DNMT1 [1]; 300 μM) | IC50 (DNMT1 [1]; read-out: IC50 (μM) DNMT1, cell-free biochemical assay, NI = no inhibition at the maximum test compound concentration (300 μM)) [µM] | inhibition of DNMT3B at the highest test compound concentration (DNMT3B/3L; 300 μM) |
| --- | --- | --- | --- | --- | --- | --- | --- | --- | --- | --- | --- |
| > 300 | Oc1ccc(/C=C/c2cc(O)cc(O)c2)cc1 [Resveratrol, 3,4′,5-trans-trihydroxystilbene] | 105 | significant reduction | 130 | 54.9 | did not significantly reduce | 65 | – | – | – | – |
| – | COc1ccc(/C=C/c2cc(OC)cc(OC)c2)cc1 [TMS, 3,4′,5-trans-trimethoxystilbene] | > 300 | – | 14 | > 100 | – | > 300 | no significant inhibition | no significant inhibition | > 300 | no significant inhibition |
